Reference: publication PMC10035904, “Synthesis of novel sulphamethoxazole derivatives and exploration of their anticancer and antimicrobial properties” (PLOS ONE, 2023)
Read-outs that look alike come from different tables or passages of the source.

Experiments:
[1] = system: HF, PPC-1, and CaKi-1 cells; assay: MTT cell viability screen at 100 μM (cell line not given); format: cell-based, human; conditions: 72 h, cell line not stated
Method: The effect of synthesized compounds on cell viability was studied using 3-(4,5-dimethylthiazol-2-yl)-2,5-diphenyltetrazolium bromide (MTT; Sigma-Aldrich Co., St Louis, MO, USA) assay, as described elsewhere. Briefly, HF, PPC-1, and CaKi-1 cells were seeded in 96-well plates (Corning) in triplicates at a volume of 100 μL at a concentration of 4 × 10^3 cells/well. After 24 h of incubation, the cells were treated with 100 μM of tested compounds. After 72 h, the MTT reagent (at 0.5 mg/mL concentration) has been added to the wells, and cells were incubated for 4 h. Then the medium was aspirated, and the formed purple crystals were dissolved in 100 μL DMSO (Sigma-Aldrich Co.). The absorbance was measured at 570 and 630 nm using a multi-detection microplate reader. The compound effect on cell viability was calculated using a formula (1): Relativecellviability%=A−A0/ANC−A0 (1) Where: […]

[2] = system: Human foreskin fibroblasts (HF) CRL-4001; assay: MTT cell viability assay, fibroblasts HF; format: cell-based; conditions: Fibroblast, 72 hours of incubation, n = 3, read-out: EC50 against HF
Method: (§1) The human clear cell renal cell carcinoma line (CaKi-1) was obtained from American Type Culture Collection (ATCC, Manassas, VA). The human prostate carcinoma cell line PPC-1 was originally obtained from ATCC and kindly provided by Prof. Tambet Teesalu (University of Tartu, Estonia). Human foreskin fibroblasts (HF) CRL-4001 were originally obtained from ATCC and kindly provided by Prof. Helder Santos (University of Helsinki, Finland). Cells were cultured in Dulbecco’s Modified Eagle’s GlutaMAX medium (Gibco (Carlsbad, CA, USA) supplemented with 10,000 U/mL penicillin, 10 mg/mL streptomycin (Gibco), and 10% fetal bovine serum (Gibco). During cell passaging, Tryple Express reagent (Gibco) was used for cell detachment. Cell cultures were grown at 37°C in a humidified atmosphere containing 5% CO2. They were used until the passage of 20.
(§2) The effect of synthesized compounds on cell viability was studied using 3-(4,5-dimethylthiazol-2-yl)-2,5-diphenyltetrazolium bromide (MTT; Sigma-Aldrich Co., St Louis, MO, USA) assay, as described elsewhere. […] The absorbance was measured at 570 and 630 nm using a multi-detection microplate reader. The compound effect on cell viability was calculated using a formula (1): Relativecellviability%=A−A0/ANC−A0 (1) Where: […]

[3] = system: human clear cell renal cell carcinoma line (CaKi-1); assay: MTT cell viability assay, CaKi-1; format: cell-based; conditions: 72 hours of incubation, n = 3, read-out: EC50 against CaKi-1
Method: as §1, §2

[4] = system: human prostate carcinoma cell line PPC-1; assay: MTT cell viability assay, PPC-1; format: cell-based; conditions: 72 hours of incubation, n = 3, read-out: EC50 against PPC-1
Method: as §1, §2

CaKi-1 cells = conditions: cited from earlier work

Row | SMILES | melting point [°C] | further results
1 | Cc1cc(NS(=O)(=O)c2ccc(NCCC(=O)NN=Cc3ccc(O)cc3)cc2)no1 [Compound 15c, 4-((3-(2-(4-Hydroxybenzylidene)hydrazineyl)-3-oxopropyl)amino)-N-(5-methylisoxazol-3-yl)benzene-sulfonamide] | 218 to 219 | –
2 | Cc1cc(NS(=O)(=O)c2ccc(NCCC(=O)NN=Cc3ccc(F)cc3)cc2)no1 [Compound 15d, 4-((3-(2-(4-Fluorobenzylidene)hydrazineyl)-3-oxopropyl)amino)-N-(5-methylisoxazol-3-yl)benzene-sulfonamide] | 213 to 214 | –
3 | Cc1cc(NS(=O)(=O)c2ccc(NCCC(=O)NN=Cc3ccccc3Cl)cc2)no1 [Compound 15e, 4-((3-(2-(2-Chlorobenzylidene)hydrazineyl)-3-oxopropyl)amino)-N-(5-methylisoxazol-3-yl)benzene-sulfonamide] | 202 to 203 | reduced cell viability up to about [1]: about 40%
4 | Cc1cc(NS(=O)(=O)c2ccc(NCCC(=O)NN=Cc3ccc(Cl)cc3)cc2)no1 [Compound 15f, 4-((3-(2-(4-Chlorobenzylidene)hydrazineyl)-3-oxopropyl)amino)-N-(5-methylisoxazol-3-yl)benzene-sulfonamide] | 210 to 211 | –
5 | COc1ccc(C=NNC(=O)CCNc2ccc(S(=O)(=O)Nc3cc(C)on3)cc2)cc1 [Compound 15g, 4-((3-(2-(4-Methoxybenzylidene)hydrazineyl)-3-oxopropyl)amino)-N-(5-methylisoxazol-3-yl)benzene-sulfonamide] | 206 to 207 | –
6 | Cc1ccc(Nc2nccc(N(C)c3ccc4c(C)n(C)nc4c3)n2)cc1S(N)(=O)=O [pazopanib] | – | EC50 (CaKi-1 cells; after 72 hours of incubation, read-out: EC50 (renal cancer drugs, compared with CaKi-1 data)): 30 µM
7 | CCN(CC)CCNC(=O)c1c(C)[nH]c(/C=C2\C(=O)Nc3ccc(F)cc32)c1C [sunitinib] | – | EC50 (CaKi-1 cells; read-out: EC50 against CaKi-1 cells): 2.2 µM

Now from value to compound, other results behind:

Row | melting point [°C] | SMILES | further results
8 | 208 to 209 | Cc1cc(NS(=O)(=O)c2ccc(NCCC(=O)NN=Cc3cccc([N+](=O)[O-])c3)cc2)no1 [Compound 15h, 4-((3-(2-(3-Nitrobenzylidene)hydrazineyl)-3-oxopropyl)amino)-N-(5-methylisoxazol-3-yl)benzene-sulfonamide] | –
9 | 210 to 211 | Cc1cc(NS(=O)(=O)c2ccc(NCCC(=O)NN=Cc3cc([N+](=O)[O-])ccc3Cl)cc2)no1 [Compound 15i, 4-((3-(2-(2-Chloro-5-nitrobenzylidene)hydrazineyl)-3-oxopropyl)amino)-N-(5-methylisoxazol-3-yl)benzenesulfonamide] | –
10 | 214 to 215 | Cc1cc(NS(=O)(=O)c2ccc(NCCC(=O)NN=Cc3ccc([N+](=O)[O-])cc3)cc2)no1 [Compound 15j, 4-((3-(2-(4-Nitrobenzylidene)hydrazineyl)-3-oxopropyl)amino)-N-(5-methylisoxazol-3-yl)benzene-sulfonamide] | –
11 | 206 to 207 | Cc1cc(NS(=O)(=O)c2ccc(NCCC(=O)NN=Cc3cccc4ccccc34)cc2)no1 [Compound 15k, N-(5-methylisoxazol-3-yl)-4-((3-(2-(naphthalen-1-ylmethylene)hydrazineyl)-3-oxopropyl)amino)-benzenesulfonamide] | EC50 [2]: > 100 µM; EC50 [3]: > 100 µM; EC50 [4]: > 100 µM; reduced cell viability up to about [1]: about 40%
12 | 185 to 186 | Cc1cc(NS(=O)(=O)c2ccc(NCCC(=O)NN=Cc3ccco3)cc2)no1 [Compound 16a, 4-((3-(2-(Furan-2-ylmethylene)hydrazineyl)-3-oxopropyl)amino)-N-(5-methylisoxazol-3-yl)benzene-sulfonamide] | –
13 | 215 to 216 | Cc1cc(NS(=O)(=O)c2ccc(NCCC(=O)NN=Cc3cccs3)cc2)no1 [Compound 16c, N-(5-methylisoxazol-3-yl)-4-((3-oxo-3-(2-(thiophen-2-ylmethylene)hydrazineyl)propyl)amino)-benzenesulfonamide] | –
14 | 195 to 196 | Cc1cc(NS(=O)(=O)c2ccc(NCCC(=O)NN=Cc3ccc([N+](=O)[O-])s3)cc2)no1 [Compound 16d, N-(5-methylisoxazol-3-yl)-4-((3-(2-((5-nitrothiophen-2-yl)methylene)hydrazineyl)-3-oxopropyl)amino)-benzenesulfonamide] | reduced cell viability up to about [1]: about 40%
